Literature values in US20040253327A1, “Compositions and methods for reducing or controlling blood cholesterol, lipoproteins, triglycerides, and sugar and preventing or treating cardiovascular diseases” (priority 2003, published 2004).

Experiments:
[1] = human, in vivo

Compound	triglyceride level (after 2 months of supplementation (vs. 161 mg/dl))	reduction in triglyceride levels (supplementation for 2 months, P<0.05)	patients developing gastrointestinal complaints [1]	reduction of blood triglyceride and LDL cholesterol levels [1]
chromium picolinate	133 mg/dL	17.4%	–	–
CN(C)C(=N)N=C(N)N [metformin]	–	–	Up to 30%	about 10%
